± gives the expanded uncertainty stated by the source.
Key:
[1] = 298.15 K; 101.33 kPa; Liquid; Vibrating tube method
[2] = refractive index (Na D-line) (dimensionless); conditions: 298.15 K; 101.33 kPa; Liquid; Standard Abbe refractometry

Row | SMILES | mass density [1] | refractive index [2]
1 | CCc1ccccc1 [ethylbenzene] | 862.51 ± 0.13 kg/m3 | 1.49304 ± 0.00031
2 | CCCCn1cc[n+](C)c1.COS(=O)(=O)[O-] [1-butyl-3-methylimidazolium methyl sulfate] | 1212.59 ± 0.41 kg/m3 | 1.47792 ± 0.00037
3 | C1=CCCCC1 [cyclohexene] | 805.69 ± 0.24 kg/m3 | 1.44378 ± 0.00037
4 | CCCCCC [hexane] | 655.19 ± 0.2 kg/m3 | 1.37234 ± 0.00033
5 | Cc1ccccc1 [toluene] | 862.17 ± 0.13 kg/m3 | 1.49399 ± 0.00031
6 | CCCn1cc[n+](C)c1.O=S(=O)([N-]S(=O)(=O)C(F)(F)F)C(F)(F)F | 1474.44 ± 0.65 kg/m3 | 1.42526 ± 0.00037
7 | CCCC[n+]1ccn(C)c1.O=S(=O)([N-]S(=O)(=O)C(F)(F)F)C(F)(F)F | 1436.35 ± 0.61 kg/m3 | 1.42706 ± 0.00037

From the NIST ThermoML archive (doi:10.1016/j.jct.2013.11.020)
